Reference: patent publication US20260207602A1, “EGFR INHIBITORS” (Blueprint Medicines Corporation, priority 2022, published 2026)

Columns and labels:
[1] = target: intracellular phosphorylation of EGFR (Tyr1068) in PC-9 cells (Homo sapiens, UniProt P00533, DEL746-750); experiment: PC-9 pEGFR AlphaLISA assay; assay type: cell-based; conditions: 4 hours incubation, read-out: Phos EGFR PC9 IC50
Procedure, shortened: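 PC-9 cells (EGFR del746-750) in phenol-free DMEM/10% FBS, adhered overnight, then exposed to 10-point 4-fold compound dilutions for 4 h at 37 °C. Lysates assayed for pEGFR Tyr1068 by AlphaLISA SureFire Ultra; IC50 from percent pEGFR inhibition vs log concentration.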

[2] = target: T1, EGFR (d746-750) (Homo sapiens, UniProt P00533, DEL746-750); experiment: Biochemical EGFR inhibition assay (Caliper mobility shift), EGFR (d746-750); conditions: biochemical Caliper mobility shift assay, EGFR Exon 19-del enzyme; read-out: Enz EGFR Exon 19-del IC50
T1 construct: purchased SignalChem E10-122JG
Procedure, shortened: (§1)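 Mobility-shift readout: phosphorylated and unphosphorylated 5-FAM peptide (2.5 µM) separated electrophoretically. Reactions at room temperature (25 °C), 1.0 mM ATP or ATP Km, HEPES pH 7.5 with MgCl2, Brij-35, DTT and 1.0% DMSO; terminated at 10–20% turnover with 35 mM EDTA. Apparent IC50 fitted.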

[3] = target: T2, EGFR L858R (Homo sapiens, UniProt P00533, L858R); experiment: Biochemical EGFR inhibition assay (Caliper mobility shift), EGFR L858R; conditions: biochemical Caliper mobility shift assay, EGFR L858R enzyme; read-out: Enz EGFR L858R IC50
T2 construct: purchased SignalChem E10-122BG
Procedure, shortened: as §1

T1 sequence (P00533 with tags, fused parts or gaps DEL746-750 limits assumed): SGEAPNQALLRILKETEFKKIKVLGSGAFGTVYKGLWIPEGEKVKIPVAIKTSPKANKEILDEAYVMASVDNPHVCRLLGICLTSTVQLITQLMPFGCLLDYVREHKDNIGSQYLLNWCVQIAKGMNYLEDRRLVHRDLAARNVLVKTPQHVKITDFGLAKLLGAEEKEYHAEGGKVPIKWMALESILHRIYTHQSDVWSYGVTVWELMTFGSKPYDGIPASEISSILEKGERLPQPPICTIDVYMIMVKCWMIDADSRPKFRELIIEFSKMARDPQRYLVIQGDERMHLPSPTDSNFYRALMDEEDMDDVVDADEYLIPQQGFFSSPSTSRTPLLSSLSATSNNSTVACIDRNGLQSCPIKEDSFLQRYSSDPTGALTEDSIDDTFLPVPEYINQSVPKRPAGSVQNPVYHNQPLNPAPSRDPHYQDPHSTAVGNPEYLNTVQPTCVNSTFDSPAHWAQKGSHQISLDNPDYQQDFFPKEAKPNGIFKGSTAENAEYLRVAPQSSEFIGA
T2 sequence (P00533 25-1210 L858R): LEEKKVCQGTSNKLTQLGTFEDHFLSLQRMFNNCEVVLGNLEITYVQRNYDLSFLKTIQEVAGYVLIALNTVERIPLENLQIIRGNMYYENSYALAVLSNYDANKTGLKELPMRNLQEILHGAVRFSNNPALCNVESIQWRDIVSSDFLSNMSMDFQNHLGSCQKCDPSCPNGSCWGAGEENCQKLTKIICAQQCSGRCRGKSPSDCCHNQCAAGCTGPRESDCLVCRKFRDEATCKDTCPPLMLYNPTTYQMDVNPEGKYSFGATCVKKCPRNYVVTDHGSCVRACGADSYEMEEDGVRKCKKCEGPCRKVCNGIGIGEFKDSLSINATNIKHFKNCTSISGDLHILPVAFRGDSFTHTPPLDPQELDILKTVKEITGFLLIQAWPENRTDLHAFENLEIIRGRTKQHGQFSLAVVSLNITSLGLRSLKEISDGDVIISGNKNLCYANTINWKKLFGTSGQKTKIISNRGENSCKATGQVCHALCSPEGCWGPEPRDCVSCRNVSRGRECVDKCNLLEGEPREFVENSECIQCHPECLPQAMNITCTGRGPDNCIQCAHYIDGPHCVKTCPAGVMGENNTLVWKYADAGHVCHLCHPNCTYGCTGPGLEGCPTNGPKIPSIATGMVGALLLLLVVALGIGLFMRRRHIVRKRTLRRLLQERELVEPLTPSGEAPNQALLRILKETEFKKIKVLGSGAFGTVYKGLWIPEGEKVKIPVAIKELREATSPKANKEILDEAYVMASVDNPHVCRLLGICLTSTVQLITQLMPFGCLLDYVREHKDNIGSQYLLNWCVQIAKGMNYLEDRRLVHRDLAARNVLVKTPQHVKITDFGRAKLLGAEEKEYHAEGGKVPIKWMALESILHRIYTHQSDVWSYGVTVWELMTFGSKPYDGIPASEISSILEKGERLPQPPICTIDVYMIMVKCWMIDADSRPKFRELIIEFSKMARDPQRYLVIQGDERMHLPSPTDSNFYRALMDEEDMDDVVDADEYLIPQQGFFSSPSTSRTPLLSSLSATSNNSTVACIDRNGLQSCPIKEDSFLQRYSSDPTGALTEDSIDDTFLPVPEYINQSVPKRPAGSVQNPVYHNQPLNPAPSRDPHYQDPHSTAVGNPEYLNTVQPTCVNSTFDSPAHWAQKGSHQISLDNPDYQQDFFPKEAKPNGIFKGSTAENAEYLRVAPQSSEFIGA
Chain of intracellular phosphorylation of EGFR (Tyr1068) in PC-9 cells (P00533 with tags, fused parts or gaps DEL746-750): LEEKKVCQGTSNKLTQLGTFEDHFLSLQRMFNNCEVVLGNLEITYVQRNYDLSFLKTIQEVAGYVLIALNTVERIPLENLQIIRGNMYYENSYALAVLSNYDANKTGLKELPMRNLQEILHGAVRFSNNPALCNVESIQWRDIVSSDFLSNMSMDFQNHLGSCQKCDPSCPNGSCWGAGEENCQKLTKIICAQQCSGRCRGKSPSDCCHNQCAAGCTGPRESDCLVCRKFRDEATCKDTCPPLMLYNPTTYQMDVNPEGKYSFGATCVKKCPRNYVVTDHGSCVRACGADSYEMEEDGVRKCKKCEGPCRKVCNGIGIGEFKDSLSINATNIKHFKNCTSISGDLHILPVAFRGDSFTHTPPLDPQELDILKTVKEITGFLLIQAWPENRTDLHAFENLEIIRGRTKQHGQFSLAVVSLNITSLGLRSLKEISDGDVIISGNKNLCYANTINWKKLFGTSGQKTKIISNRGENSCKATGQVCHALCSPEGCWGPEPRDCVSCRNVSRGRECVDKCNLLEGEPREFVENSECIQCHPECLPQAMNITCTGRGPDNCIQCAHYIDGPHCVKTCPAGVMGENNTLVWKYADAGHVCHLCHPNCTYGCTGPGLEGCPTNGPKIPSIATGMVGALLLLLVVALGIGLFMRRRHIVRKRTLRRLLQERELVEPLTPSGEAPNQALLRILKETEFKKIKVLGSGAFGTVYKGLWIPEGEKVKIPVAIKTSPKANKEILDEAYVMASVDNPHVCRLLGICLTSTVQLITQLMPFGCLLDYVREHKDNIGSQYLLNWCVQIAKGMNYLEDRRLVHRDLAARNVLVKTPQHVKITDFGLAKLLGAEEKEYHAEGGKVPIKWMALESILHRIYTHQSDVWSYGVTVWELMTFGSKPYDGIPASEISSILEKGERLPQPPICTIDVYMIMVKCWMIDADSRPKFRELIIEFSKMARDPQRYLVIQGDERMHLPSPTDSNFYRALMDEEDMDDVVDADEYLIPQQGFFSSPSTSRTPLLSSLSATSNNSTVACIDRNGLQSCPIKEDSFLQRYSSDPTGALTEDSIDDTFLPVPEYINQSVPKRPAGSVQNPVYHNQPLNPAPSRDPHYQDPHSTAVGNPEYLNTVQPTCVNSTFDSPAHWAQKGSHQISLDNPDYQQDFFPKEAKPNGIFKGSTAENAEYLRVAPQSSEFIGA

Question: With CN1CC[C@@H](Oc2cc(-c3cnn(C)c3)cc3ncnc(Nc4ccc5ncsc5c4)c23)[C@@H](F)C1 (racemic) [Example 339, cis-N-(5-(((3S,4R)-3-fluoro-1-methylpiperidin-4-yl)oxy)-7-(1-methyl-1H-pyrazol-4-yl)quinazolin-4-yl)benzo[d]thiazol-6-amine] as the molecule, how does the IC50 [1] read?
Answer: ≤ 0.01 µM

Question: And the IC50 [2]?
Answer: ≤ 0.01 µM

Question: What about the IC50 [3] of the same molecule?
Answer: ≤ 0.01 µM

Question: How did the IC50 [1] turn out when Cn1cc(-c2cc(OC3CCCOC3)c3c(Nc4ccc5ncsc5c4)ncnc3c2)cn1 (stereo not drawn) [Example 414, N-(7-(1-methyl-1H-pyrazol-4-yl)-5-((tetrahydro-2H-pyran-3-yl)oxy)quinazolin-4-yl)benzo[d]thiazol-6-amine] was run?
Answer: ≤ 0.01 µM

Question: And the IC50 [2]?
Answer: ≤ 0.01 µM

Question: And the IC50 [3]?
Answer: ≤ 0.01 µM

Question: Which IC50 [1] does the source give for CC(Oc1cc(-c2cnn(C)c2)cc2ncnc(Nc3ccc4ncsc4c3F)c12)C(=O)N(C)C (stereo not drawn) [Example 278, 2-((4-((7-fluorobenzo[d]thiazol-6-yl)amino)-7-(1-methyl-1H-pyrazol-4-yl)quinazolin-5-yl)oxy)-N,N-dimethylpropanamide] here?
Answer: ≤ 0.01 µM

Question: What about the IC50 [2] of the same molecule?
Answer: ≤ 0.01 µM

Question: What about the IC50 [3] of the same molecule?
Answer: ≤ 0.01 µM

Question: How did the IC50 [1] turn out when COc1cc2ncnc(Nc3ccc4ncsc4c3)c2cc1-c1cnn(C2CCN(C)C[C@H]2F)c1 (single isomer, unassigned) [Example 167] was run?
Answer: 0.0101 to 0.05 µM

Question: What about the IC50 [2] of the same molecule?
Answer: ≤ 0.01 µM

Question: What about the IC50 [3] of the same molecule?
Answer: 0.0101 to 0.05 µM

Question: Which results are given for COc1cc2ncnc(Nc3ccc4ncsc4c3)c2cc1-c1cnn(CC2CCN(C)CC2)c1 [Example 242, N-(7-methoxy-6-(1-((1-methylpiperidin-4-yl)methyl)-1H-pyrazol-4-yl)quinazolin-4-yl)benzo[d]thiazol-6-amine]?
Answer: IC50 [1]: 0.0101 to 0.05 µM; IC50 [2]: ≤ 0.01 µM; IC50 [3]: ≤ 0.01 µM

Question: CC(Oc1cc(-c2cn[nH]c2)cc2ncnc(Nc3ccc4ncsc4c3)c12)C1COC1 (single isomer, unassigned) [Example 122] was tested. Which IC50 [1] did it give?
Answer: ≤ 0.01 µM

Question: What about the IC50 [2] of the same molecule?
Answer: ≤ 0.01 µM

Question: What about the IC50 [3] of the same molecule?
Answer: ≤ 0.01 µM

Question: For C[C@@H](Oc1cc(-c2cnn(C)c2)cc2ncnc(Nc3ccc4ncsc4c3)c12)C(F)F (single isomer, unassigned) [Example 52], which IC50 [1] is on record?
Answer: ≤ 0.01 µM

Question: What about the IC50 [2] of the same molecule?
Answer: ≤ 0.01 µM

Question: What about the IC50 [3] of the same molecule?
Answer: ≤ 0.01 µM

Question: Which results are given for CO[C@H]1COC[C@@H]1Oc1cc(-c2cnn(C)c2)cc2ncnc(Nc3ccc4ncsc4c3)c12 (single isomer, unassigned) [Example A31]?
Answer: IC50 [1]: 0.0101 to 0.05 µM; IC50 [2]: ≤ 0.01 µM; IC50 [3]: ≤ 0.01 µM

Question: With CN1CCC[C@H](Oc2cc(-c3cnn(C)c3)cc3ncnc(Nc4ccc5ncsc5c4F)c23)C1 [Example 69, (S)-7-fluoro-N-(7-(1-methyl-1H-pyrazol-4-yl)-5-((1-methylpiperidin-3-yl)oxy)quinazolin-4-yl)benzo[d]thiazol-6-amine] as the molecule, how does the IC50 [1] read?
Answer: ≤ 0.01 µM

Question: What about the IC50 [2] of the same molecule?
Answer: ≤ 0.01 µM

Question: What about the IC50 [3] of the same molecule?
Answer: ≤ 0.01 µM

Question: How did the IC50 [1] turn out when Cn1cc(-c2cc(OC3CCN(CC(F)F)CC3)c3c(Nc4ccc5ncsc5c4F)ncnc3c2)cn1 [Example 310, N-(5-((1-(2,2-difluoroethyl)piperidin-4-yl)oxy)-7-(1-methyl-1H-pyrazol-4-yl)quinazolin-4-yl)-7-fluorobenzo[d]thiazol-6-amine] was run?
Answer: ≤ 0.01 µM

Question: What about the IC50 [2] of the same molecule?
Answer: ≤ 0.01 µM

Question: What about the IC50 [3] of the same molecule?
Answer: ≤ 0.01 µM

Question: What does the source list for COCCN1CCC(Oc2cc(-c3cn(C)nc3OC)cc3ncnc(Nc4ccc5ncsc5c4)c23)CC1 [Example 305, N-(7-(3-methoxy-1-methyl-1H-pyrazol-4-yl)-5-((1-(2-methoxyethyl)piperidin-4-yl)oxy)quinazolin-4-yl)benzo[d]thiazol-6-amine]?
Answer: IC50 [1]: ≤ 0.01 µM; IC50 [2]: ≤ 0.01 µM; IC50 [3]: ≤ 0.01 µM

Question: Which results are given for COC[C@@H](C)Oc1cc(-n2cc([C@@H](C)O)cn2)cc2ncnc(Nc3ccc4ncsc4c3F)c12 (single isomer, unassigned) [Example A19]?
Answer: IC50 [1]: ≤ 0.01 µM; IC50 [2]: ≤ 0.01 µM; IC50 [3]: ≤ 0.01 µM

Question: What does the source list for CCN1CC[C@H](Oc2cc(-c3cnn(C)c3)cc3ncnc(Nc4ccc5ncsc5c4)c23)C1=O (single isomer, unassigned) [Example 60, (S)-3-((4-(benzo[d]thiazol-6-ylamino)-7-(1-methyl-1H-pyrazol-4-yl)quinazolin-5-yl)oxy)-1-ethylpyrrolidin-2-one or (R)-3-((4-(benzo[d]thiazol-6-ylamino)-7-(1-methyl-1H-pyrazol-4-yl)quinazolin-5-yl)oxy)-1-ethylpyrrolidin-2-one]?
Answer: IC50 [1]: 0.0101 to 0.05 µM; IC50 [2]: ≤ 0.01 µM; IC50 [3]: ≤ 0.01 µM

Question: What does the source list for CN1CC[C@H](Oc2cc(-c3cn(C)nc3OC(F)F)cc3ncnc(Nc4ccc5ncsc5c4)c23)[C@H](F)C1 [Example 367, N-(7-(3-(difluoromethoxy)-1-methyl-1H-pyrazol-4-yl)-5-(((3R,4S)-3-fluoro-1-methylpiperidin-4-yl)oxy)quinazolin-4-yl)benzo[d]thiazol-6-amine]?
Answer: IC50 [1]: 0.0101 to 0.05 µM; IC50 [2]: ≤ 0.01 µM; IC50 [3]: 0.0101 to 0.05 µM

Question: How did the IC50 [1] turn out when COC[C@H](C)Oc1cc(-c2cnn(C)c2)cc2ncnc(Nc3ccc4ncsc4c3F)c12 [Example 139, (S)-7-fluoro-N-(5-((1-methoxypropan-2-yl)oxy)-7-(1-methyl-1H-pyrazol-4-yl)quinazolin-4-yl)benzo[d]thiazol-6-amine] was run?
Answer: ≤ 0.01 µM

Question: What about the IC50 [2] of the same molecule?
Answer: ≤ 0.01 µM

Question: And the IC50 [3]?
Answer: ≤ 0.01 µM

Question: What does the source list for CO[C@H]1COC[C@@H]1Oc1cc(-c2cnn(C)c2)cc2ncnc(Nc3ccc4ncsc4c3)c12 (single isomer, unassigned) [Example A32]?
Answer: IC50 [1]: 0.0101 to 0.05 µM; IC50 [2]: ≤ 0.01 µM; IC50 [3]: 0.0101 to 0.05 µM

Question: Which results are given for COc1cc2c(Nc3ccc4ncsc4c3F)ncnc2cc1-c1cn(C)nc1OC [Example 264, 7-fluoro-N-(6-methoxy-7-(3-methoxy-1-methyl-1H-pyrazol-4-yl)quinazolin-4-yl)benzo[d]thiazol-6-amine]?
Answer: IC50 [1]: 0.0101 to 0.05 µM; IC50 [2]: ≤ 0.01 µM; IC50 [3]: ≤ 0.01 µM

Question: Which results are given for C[C@H](CN(C)C)Oc1cc(N2CCOCC2)cc2ncnc(Nc3ccc4ncsc4c3F)c12 [Example 183, (R)-N-(5-((1-(dimethylamino)propan-2-yl)oxy)-7-morpholinoquinazolin-4-yl)-7-fluorobenzo[d]thiazol-6-amine]?
Answer: IC50 [1]: 0.0101 to 0.05 µM; IC50 [2]: ≤ 0.01 µM; IC50 [3]: 0.0101 to 0.05 µM

Question: CN1CCN(C(=O)COc2cc(-c3cnn(C)c3)cc3ncnc(Nc4ccc5ncsc5c4F)c23)CC1 [Example 275, 2-((4-((7-fluorobenzo[d]thiazol-6-yl)amino)-7-(1-methyl-1H-pyrazol-4-yl)quinazolin-5-yl)oxy)-1-(4-methylpiperazin-1-yl)ethan-1-one] was tested. Which IC50 [1] did it give?
Answer: 0.0101 to 0.05 µM

Question: What about the IC50 [2] of the same molecule?
Answer: ≤ 0.01 µM

Question: And the IC50 [3]?
Answer: ≤ 0.01 µM

Question: For CN1CCC(C)(COc2cc(-c3cnn(C)c3)cc3ncnc(Nc4ccc5ncsc5c4)c23)C1=O (stereo not drawn) [Example 54, 3-(((4-(benzo[d]thiazol-6-ylamino)-7-(1-methyl-1H-pyrazol-4-yl)quinazolin-5-yl)oxy)methyl)-1,3-dimethylpyrrolidin-2-one], which IC50 [1] is on record?
Answer: 0.0101 to 0.05 µM

Question: What about the IC50 [2] of the same molecule?
Answer: ≤ 0.01 µM

Question: What about the IC50 [3] of the same molecule?
Answer: ≤ 0.01 µM

Question: Which results are given for C[C@H](Oc1cc(-c2cnn(C)c2)cc2ncnc(Nc3ccc4ncsc4c3F)c12)C1CCOC1 (stereo partly drawn) [Example 90, 7-fluoro-N-(7-(1-methyl-1H-pyrazol-4-yl)-5-((1S)-1-(tetrahydrofuran-3-yl)ethoxy)quinazolin-4-yl)benzo[d]thiazol-6-amine]?
Answer: IC50 [1]: 0.0101 to 0.05 µM; IC50 [2]: ≤ 0.01 µM; IC50 [3]: ≤ 0.01 µM

Question: For COc1cn(C)nc1-c1cc(OC2CCN(C)CC2)c2c(Nc3ccc4ncsc4c3)ncnc2c1 [Example 131, N-(7-(4-methoxy-1-methyl-1H-pyrazol-3-yl)-5-((1-methylpiperidin-4-yl)oxy)quinazolin-4-yl)benzo[d]thiazol-6-amine], which IC50 [1] is on record?
Answer: 0.0101 to 0.05 µM

Question: And the IC50 [2]?
Answer: ≤ 0.01 µM

Question: What about the IC50 [3] of the same molecule?
Answer: 0.0101 to 0.05 µM

Question: What does the source list for [2H]C([2H])([2H])Oc1cc(O[C@H](C)C2COC2)c2c(Nc3ccc4ncsc4c3F)ncnc2c1 [Example 130, (R)-7-fluoro-N-(7-(methoxy-d3)-5-(1-(oxetan-3-yl)ethoxy)quinazolin-4-yl)benzo[d]thiazol-6-amine]?
Answer: IC50 [1]: ≤ 0.01 µM; IC50 [2]: ≤ 0.01 µM; IC50 [3]: ≤ 0.01 µM

Question: For C[C@H](CN(C)C)Oc1cc(N2CC3CC(C2)O3)cc2ncnc(Nc3ccc4ncsc4c3)c12 [Example 177, N-(7-(6-oxa-3-azabicyclo[3.1.1]heptan-3-yl)-5-(((R)-1-(dimethylamino)propan-2-yl)oxy)quinazolin-4-yl)benzo[d]thiazol-6-amine], which IC50 [1] is on record?
Answer: ≤ 0.01 µM

Question: And the IC50 [2]?
Answer: ≤ 0.01 µM

Question: And the IC50 [3]?
Answer: ≤ 0.01 µM

Question: C[C@H](CO)Oc1cc(-c2cnn(C)c2)cc2ncnc(Nc3ccc4ncsc4c3F)c12 (single isomer, unassigned) [Example 289] was tested. Which IC50 [1] did it give?
Answer: ≤ 0.01 µM

Question: What about the IC50 [2] of the same molecule?
Answer: ≤ 0.01 µM

Question: And the IC50 [3]?
Answer: ≤ 0.01 µM

Question: With COc1cc(-c2cnn(C)c2)cc2ncnc(Nc3ccc4ncsc4c3F)c12 [Example 3, 7-fluoro-N-(5-methoxy-7-(1-methyl-1H-pyrazol-4-yl)quinazolin-4-yl)benzo[d]thiazol-6-amine] as the molecule, how does the IC50 [1] read?
Answer: 0.0101 to 0.05 µM

Question: What about the IC50 [2] of the same molecule?
Answer: ≤ 0.01 µM

Question: And the IC50 [3]?
Answer: ≤ 0.01 µM

Question: Which IC50 [1] does the source give for CN1CC[C@H](O)[C@@H](Oc2cc(-c3cnn(C)c3)cc3ncnc(Nc4ccc5ncsc5c4)c23)C1 (single isomer, unassigned) [Example A34] here?
Answer: > 0.0501 µM

Question: What about the IC50 [2] of the same molecule?
Answer: ≤ 0.01 µM

Question: And the IC50 [3]?
Answer: 0.0101 to 0.05 µM

Question: Which IC50 [1] does the source give for Cn1cc(-c2cc(O[C@@H]3CC[C@H](O)C3)c3c(Nc4ccc5ncsc5c4)ncnc3c2)cn1 [Example 411, (1S,3R)-3-((4-(benzo[d]thiazol-6-ylamino)-7-(1-methyl-1H-pyrazol-4-yl)quinazolin-5-yl)oxy)cyclopentan-1-ol] here?
Answer: ≤ 0.01 µM

Question: What about the IC50 [2] of the same molecule?
Answer: ≤ 0.01 µM

Question: And the IC50 [3]?
Answer: ≤ 0.01 µM
